Reference: US20240358705A1, “COMPOSITIONS AND METHODS FOR TREATMENT OF CANCER” (Board of Supervisors of Louisiana State University and …, priority 2021, published 2024)

What was measured:
[1] = tested on: cytochrome family of enzymes; details: cited from earlier work
CD8 T cells [2] = test: CD8 T cell differentiation by flow cytometry; assay type: cell-based, mouse; details: 72 hours
Procedure: (§1) Lymph nodes and spleen were isolated from wild-type C57BL/6N mice. Tissue was mechanically dissociated with the back of a syringe plunger and passed through a […] filter. […] Treated cells were incubated at 37° C., 5% CO2 for the designed study duration. […] After staining, cells were pelleted, resuspended and run by a BD FACSymphony A3 flow cytometer.

[3] = three separate models of NASH; cited from earlier work
CD4 T cells [4] = test: CD4 T cell differentiation by flow cytometry; assay type: cell-based, mouse; details: 72 hours; for naïve CD4 T cell compartment, reduction vs DMSO: trend not found to be significant
Procedure: as §1

CD8 T cells [5] = test: CD8 T cell activation markers by flow cytometry; assay type: cell-based, mouse; details: 72 hours
Procedure: as §1

CD4 T cells [6] = test: Annexin/PI apoptosis staining, CD4; assay type: cell-based, mouse; details: 3 μM or 10 μM, 72 hours, vs DMSO
Procedure: (§2) Lymph nodes and spleen were isolated from wild-type C57BL/6N mice. Tissue was mechanically dissociated with the back of a syringe plunger and passed through a 70 M filter. […] Treated cells were incubated at 37° C., 5% CO2 for the designed study duration.
Treated CD3 T cells were prepared following the in vitro T cell activation method and incubated for 72 hours at 37° C., 5% CO2.

BM-MDSCs = details: differentiating BM-MDSCs, 3 μM or 10 μM, 72 hours
Procedure: Bone marrow cells were isolated by flushing the tibia and femurs of wild-type C57BL/6N mice. […] To generate BM-MDSCs, 3×10^6 cells were plated in a 6-well dish and incubated at 37° C., 5% CO2 for 96 hours. For treatment, drugs were administered at either 3 μM or 10 μM concentrations and added to the BM-MDSC cell culture well 24 hours after plating.
Protein concentration was quantified using a BCA protein assay kit (Thermo #A53225). […] of protein diluted with 1×LDS sample buffer (Life Technologies #B0008) and 1×sample reducing agent (Life Technologies #B0009), were denatured at 95° C. for 5 minutes. Denatured T cell protein was resolved using a 10% Bolt Bis-Tris plus protein gel (Thermo #NW00102BOX) and denatured BM-MDSC protein was resolved using an 8% Bolt Bis-Tris plus protein gel (Thermo #NW00082BOX). Gels were transferred to a PVDF membrane (Invitrogen #IB401002) using a seven-minute P3 program on an Invitrogen iBlot dry transfer system. Membranes were then blocked for one hour using 5% nonfat dry milk in TBS-T, washed three times with TBS-T and probed with primary antibody diluted with 5% BSA in TBS-T overnight at 4° C. with gentle rocking. Primary antibody was removed, and membranes were washed three times with TBS-T followed by secondary antibody diluted in TBS-T at room temperature for one hour with gentle rocking. […]

[7] = interstitial pulmonary fibrosis; cited from earlier work
CD8 T cells [8] = test: 2-NBDG glucose analog uptake assay; assay type: cell-based, mouse; details: 72 hours
Procedure: as §2
Treated CD3 T cells were prepared following the in vitro T cell activation method and incubated for 72 hours at 37° C., 5% CO2. […] (Thermo #N13195) Cells were then incubated for one hour at 37° C., 5% CO2. After incubation, T cells were washed, pelleted and stained with anti-CD4, anti-CD8, anti-CD3 following the immune profiling by flow cytometry method. Percent uptake was calculated using mean fluorescent intensity (MFI).

CD8 T cells [9] = test: Quantitative PCR of glycolysis enzymes; assay type: cell-based, mouse; details: 3 μM and 10 μM, 48 hours
Procedure: as §2

CD8 T cells [10] = test: CFSE labeling and T cell proliferation; assay type: cell-based, mouse; details: 72 hours
Procedure: Lymph nodes and spleen were isolated from wild-type C57BL/6N mice. Tissue was mechanically dissociated with the back of a syringe plunger and passed through a […] filter. […] Treated cells were incubated at 37° C., 5% CO2 for the designed study duration. Isolated CD3 T cells were labeled with 1 μM CFDA SE (Thermo #V12883) for 15 minutes at 37° C. protected from light. […] Cells were pelleted, resuspended and plated in an antibody coated well with the indicated drug concentrations at time zero. Activated T cells were incubated at 37° C., 5% CO2 for 72 hours. After study duration, T cells were stained with anti-CD4, anti-CD8, anti-CD3 following the immune profiling by flow cytometry method and proliferation was measured by CFSE dilution.

Question: With `O=c1nc(OC[C@@H]2COCCO2)cc2n1CCc1cc(C#CC3CC3)ccc1-2` [GLPG1205, 9-Cyclopropylethynyl-2-((S)-1-[1,4]dioxan-2-ylmethoxy)-6,7-dihydropyrimido[6,1-a]isoquinolin-4-one] as the compound, how does the “interaction with the cytochrome family of enzymes” value [1] read?
Answer: strong safety profiles

Question: What about the “effector/memory CD8 compartment (CD62L−, CD44+), average increase compared to DMSO control” value (CD8 T cells [2]; 3 μM) of the same compound?
Answer: 23.57%

Question: And the “naïve CD8 T cell compartment (CD62L+, CD44−), average reduction compared to DMSO control” value (CD8 T cells [2]; 3 μM)?
Answer: 32.54%

Question: And the “effector/memory CD8 compartment (CD62L−, CD44+), average increase compared to DMSO control” value (CD8 T cells [2]; 10 μM)?
Answer: 37.93%

Question: And the “naïve CD8 T cell compartment (CD62L+, CD44−), average reduction compared to DMSO control” value (CD8 T cells [2]; 10 μM)?
Answer: 74.69%

Question: And the macrophage accumulation [3]?
Answer: significant decrease in macrophage accumulation

Question: What about the “effector/memory CD4 T cells, increase compared to DMSO control” value (CD4 T cells [4]; 3 μM) of the same compound?
Answer: 31.55%

Question: And the “naïve CD4 T cell compartment, reduction vs DMSO” value (CD4 T cells [4]; 3 μM)?
Answer: 41.57%

Question: What about the “effector/memory CD4 T cells, increase compared to DMSO control” value (CD4 T cells [4]; 10 μM) of the same compound?
Answer: 39.79%

Question: And the “naïve CD4 T cell compartment, reduction vs DMSO” value (CD4 T cells [4]; 10 μM)?
Answer: 45.61%

Question: And the “CD25 expression, increase vs DMSO” value (CD8 T cells [5]; 3 μM)?
Answer: 21%

Question: What about the “CD69 expression, increase vs DMSO” value (CD8 T cells [5]; 3 μM) of the same compound?
Answer: 11.24%

Question: And the “CTLA-4, increase vs DMSO” value (CD8 T cells [5]; 3 μM)?
Answer: 50.31%

Question: What about the “LAG-3, increase vs DMSO” value (CD8 T cells [5]; 3 μM) of the same compound?
Answer: 11.72%

Question: What about the “PD-1, increase vs DMSO” value (CD8 T cells [5]; 3 μM) of the same compound?
Answer: 10.02%

Question: What about the “intracellular IFNγ, increase vs DMSO” value (CD8 T cells [5]; 3 μM) of the same compound?
Answer: 51.23%

Question: And the “CD25 expression, increase vs DMSO” value (CD8 T cells [5]; 10 μM)?
Answer: 25.58%

Question: What about the “CD69 expression, increase vs DMSO” value (CD8 T cells [5]; 10 μM) of the same compound?
Answer: 14.59%

Question: And the “CTLA-4, increase vs DMSO” value (CD8 T cells [5]; 10 μM)?
Answer: 81.92%

Question: What about the “LAG-3, increase vs DMSO” value (CD8 T cells [5]; 10 μM) of the same compound?
Answer: 13.15%

Question: What about the “PD-1, increase vs DMSO” value (CD8 T cells [5]; 10 μM) of the same compound?
Answer: 13.91%

Question: And the “intracellular IFNγ, increase vs DMSO” value (CD8 T cells [5]; 10 μM)?
Answer: 61.55%

Question: What about the “CD4 apoptosis (Annexin/PI)” value (CD4 T cells [6]) of the same compound?
Answer: did not elicit any significant changes

Question: What about the GPR84 expression (BM-MDSCs) of the same compound?
Answer: only neared statistical significance

Question: And the “fibrosis, over the standard of care” value [7]?
Answer: non-significant reduction in fibrosis

Question: What about the “2-NBDG uptake (MFI), Log2 fold change compared to DMSO control” value (CD8 T cells [8]; 3 μM) of the same compound?
Answer: 0.19 Log2 fold change

Question: And the “2-NBDG uptake, increase vs DMSO” value (CD8 T cells [8]; 3 μM)?
Answer: 13.92%

Question: What about the “2-NBDG uptake (MFI), Log2 fold change compared to DMSO control” value (CD8 T cells [8]; 10 μM) of the same compound?
Answer: 0.24 Log2 fold change

Question: What about the “2-NBDG uptake, increase vs DMSO” value (CD8 T cells [8]; 10 μM) of the same compound?
Answer: 17.74%

Question: What about the “gene expression of enzymes in glycolytic pathway compared to DMSO control” value (CD8 T cells [9]) of the same compound?
Answer: significant dose-dependent increase

Question: And the “CD8 T cell proliferation, Log2 fold change compared DMSO control” value (CD8 T cells [10]; 3 μM)?
Answer: 0.48 Log2 fold change

Question: And the “CD8 T cell proliferation, increase vs DMSO” value (CD8 T cells [10]; 3 μM)?
Answer: 39.3%

Question: And the “CD8 T cell proliferation, Log2 fold change compared DMSO control” value (CD8 T cells [10]; 10 μM)?
Answer: 0.78 Log2 fold change

Question: What about the “CD8 T cell proliferation, increase vs DMSO” value (CD8 T cells [10]; 10 μM) of the same compound?
Answer: 71.7%
